Laboratory results taken from US8785377B2, “Tetrazolyl macrocyclic hepatitis C serine protease inhibitors” (Enanta Pharmaceuticals, Inc., priority 2006, dated 2014).

What was measured:
[1] = tested on: HCV replicon RNA in Huh 11-7 cell line; test: Cell-Based Replicon Assay; details: Hepatitis C virus, 96 h; Huh 11-7 cells, 4 days
Description: Quantification of HCV replicon RNA (HCV Cell Based Assay) is accomplished using the Huh 11-7 cell line (Lohmann, et al Science 285:110-113, 1999). Cells are seeded at 4×10^3 cells/well in 96 well plates and fed media containing DMEM (high glucose), 10% fetal calf serum, penicillin-streptomycin and non-essential amino acids. Cells are incubated in a 7.5% CO2 incubator at 37° C. At the end of the incubation period, total RNA is extracted and purified from cells using Ambion RNAqueous 96 Kit (Catalog No. AM1812). To amplify the HCV RNA so that sufficient material can be detected by an HCV specific probe (below), primers specific for HCV (below) mediate both the reverse transcription of the HCV RNA and the amplification of the cDNA by polymerase chain reaction (PCR) using the TaqMan One-Step RT-PCR Master Mix Kit (Applied Biosystems catalog no. 4309169). The nucleotide sequences of the RT-PCR primers, which are located in the NS5B region of the HCV genome, are the following:
Detection of the RT-PCR product is accomplished using the Applied Biosystems (ABI) Prism 7500 Sequence Detection System (SDS) that detects the fluorescence that is emitted when the probe, which is labeled with a fluorescence reporter dye and a quencher dye, is degraded during the PCR reaction. The increase in the amount of fluorescence is measured during each cycle of PCR and reflects the increasing amount of RT-PCR product. Specifically, quantification is based on the threshold cycle, where the amplification plot crosses a defined fluorescence threshold. […] The data is analyzed using the ABI SDS program version 1.7. […]
The RT-PCR product was detected using the following labeled probe: […]
To normalize the data to an internal control molecule within the cellular RNA, RT-PCR is performed on the cellular messenger RNA glyceraldehyde-3-phosphate dehydrogenase (GAPDH). […] GAPDH RT-PCR is performed on the same RNA sample from which the HCV copy number is determined. […] The ratio of HCV/GAPDH RNA is used to calculate the activity of compounds evaluated for inhibition of HCV RNA replication. […]

[2] = Pharmacokinetic analysis, single oral dose in rat; details: in vivo, single oral dose of 20 mg/kg
[3] = target: full-length NS3 HCV protease 1b tethered with NS4A cofactor (Hepatitis C virus genotype 1b, UniProt Q9WMX2); test: NS3/NS4a Protease Enzyme Assay; assay type: biochemical
Description: HCV protease activity and inhibition is assayed using an internally quenched fluorogenic substrate. A DABCYL and an EDANS group are attached to opposite ends of a short peptide. Quenching of the EDANS fluorescence by the DABCYL group is relieved upon proteolytic cleavage. Fluorescence is measured with a Molecular Devices Fluoromax (or equivalent) using an excitation wavelength of 355 nm and an emission wavelength of 485 nm.
The assay is run in Corning white half-area 96-well plates (VWR 29444-312 [Corning 3693]) with full-length NS3 HCV protease 1b tethered with NS4A cofactor (final enzyme concentration 1 to 15 nM). The assay buffer is complemented with 10 μM NS4A cofactor Pep 4A (Anaspec 25336 or in-house, MW 1424.8). RET S1 (Ac-Asp-Glu-Asp(EDANS)-Glu-Glu-Abu-[COO]Ala-Ser-Lys-(DABCYL)-NH2, AnaSpec 22991, MW 1548.6) is used as the fluorogenic peptide substrate. The assay buffer contains 50 mM Hepes at pH 7.5, 30 mM NaCl and 10 mM BME. The enzyme reaction is followed over a 30 minutes time course at room temperature in the absence and presence of inhibitors.
The peptide inhibitors HCV Inh 1 (Anaspec 25345, MW 796.8) Ac-Asp-Glu-Met-Glu-Glu-Cys-OH, [−20° C.] and HCV Inh 2 (Anaspec 25346, MW 913.1) Ac-Asp-Glu-Dif-Cha-Cys-OH, are used as reference compounds.
IC50 values are calculated using XLFit in ActivityBase (IDBS) using equation 205: y=A+((B−A)/(1+((C/x)^D))).

Chain of full-length NS3 HCV protease 1b tethered with NS4A cofactor (Q9WMX2 1027-1657, other chains not shown): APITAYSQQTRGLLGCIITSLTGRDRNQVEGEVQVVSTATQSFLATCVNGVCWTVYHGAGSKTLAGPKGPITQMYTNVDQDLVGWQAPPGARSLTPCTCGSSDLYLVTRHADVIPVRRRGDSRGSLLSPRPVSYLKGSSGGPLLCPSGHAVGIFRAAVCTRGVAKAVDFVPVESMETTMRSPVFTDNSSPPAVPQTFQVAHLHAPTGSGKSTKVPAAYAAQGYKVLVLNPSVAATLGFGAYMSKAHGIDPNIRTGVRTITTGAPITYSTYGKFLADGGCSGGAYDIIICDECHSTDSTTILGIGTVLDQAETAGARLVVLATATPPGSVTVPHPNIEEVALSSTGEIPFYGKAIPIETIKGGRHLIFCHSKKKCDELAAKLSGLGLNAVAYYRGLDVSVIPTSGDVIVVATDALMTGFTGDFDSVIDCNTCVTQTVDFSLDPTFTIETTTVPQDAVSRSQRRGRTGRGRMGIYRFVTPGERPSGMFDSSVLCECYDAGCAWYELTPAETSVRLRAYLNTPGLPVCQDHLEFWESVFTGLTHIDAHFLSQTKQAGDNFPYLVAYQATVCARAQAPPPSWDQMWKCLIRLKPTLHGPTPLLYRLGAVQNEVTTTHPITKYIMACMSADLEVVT

Compound: COc1ccc(-c2nnn(C3CC4C(=O)NC5(C(=O)NS(=O)(=O)C6CC6)CC5C=CCCCCCC(NC(=O)OC5CCCC5)C(=O)N4C3)n2)cc1 (stereo not drawn) [Example 36]
- EC50 [1]: 0.8 nM
- AUC [2]: 52900 ng·h/mL
- Cmax [2]: 16100 ng/mL
- bioavailability [2]: 76%
- IC50 [3]: 0.1 nM

Compound: COc1ccc(-n2nnc(C3CC4C(=O)NC5(C(=O)NS(=O)(=O)C6CC6)CC5C=CCCCCCC(NC(=O)OC5CCCC5)C(=O)N4C3)n2)cc1 (stereo not drawn) [Example 101]
- EC50 [1]: 0.8 nM
- IC50 [3]: 0.4 nM

Compound: O=C(NC1CCCCCC=CC2CC2(C(=O)NS(=O)(=O)C2CC2)NC(=O)C2CC(n3nnc(-c4cccc5ccccc45)n3)CN2C1=O)OC1CCCC1 (stereo not drawn) [Example 117]
- EC50 [1]: 0.8 nM
- IC50 [3]: 0.2 nM
